Key:
[1] = system: mitochondrial protein synthesis; experiment: Mitochondrial protein synthesis (35S-methionine incorporation), HASMC; format: cell-based, human
Method: (§1) Human umbilical endothelial vein cells (HUVEC) and human aortic smooth muscle cells (HASMC) were maintained a t 37° C. and 5% CO2/95% air in Dulbecco's Modified Eagles Media (HASMC; Cell Gro) or M199 (HUVEC:Cell Gro) supplemented with 10% (HASMC) or 20% (HUVEC) heat inactivated fetal calf serum (Gibco/BRL), HEPES buffer (10 mM), glutamine, penicillin, and streptomycin. Flasks were routinely split every 3-4 days and disassociated for experiments using trypsin-EDTA (Gibco/BRL). Cells were treated with the various reactive oxygen species (controls mock treated with serum-free media) at 70-80% confluence, between passages 5-7. […] SIN-1 (3-morpholinosydnonimine, hydrochloride, Molecular Probes) was used to generate higher, equimolar levels of nitric oxide and O2^−. Monolayer cultures in 60 mm plates (70%-80% confluent) were exposed to specific reactive oxygen species concentrations for dose response, and time-course experiments in serum-free, phenol red free minimum essential media (MEM) at 37° C. Control monolayers were mock-treated with serum-free and phenol red-free MEM alone. After treatment, cells were washed once with PBS and harvested immediately. Methods for mitochondrial protein synthesis analyses have been described (37). […] Cells were trypsinized, and washed with PBS. […] Gels were dried onto Whatman filter paper, and exposed to Kodak XAR film at −80° C. The percent labeling of the translation products was determined by densitometry (Molecular Dynamics Densitometer SI) of all bands for untreated and treated samples. The sum of labeling of the bands for each sample was used to calculate the relative levels of incorporation. In regard to the quantitation of mitochondrial protein levels, any technique used to quantify mitochondrial protein synthesis levels would be applicable. Statistical analysis was performed using the independent Student's t test.

[2] = system: nDNA (β-globin gene cluster); experiment: QPCR DNA damage assay, nDNA, HUVEC; format: cell-based, human; conditions: 0.2 mM, time course 0-60 minutes
Method: (§2) Human umbilical endothelial vein cells (HUVEC) and human aortic smooth muscle cells (HASMC) were maintained a t 37° C. and 5% CO2/95% air in Dulbecco's Modified Eagles Media (HASMC; Cell Gro) or M199 (HUVEC:Cell Gro) supplemented with 10% (HASMC) or 20% (HUVEC) heat inactivated fetal calf serum (Gibco/BRL), HEPES buffer (10 mM), glutamine, penicillin, and streptomycin. Flasks were routinely split every 3-4 days and disassociated for experiments using trypsin-EDTA (Gibco/BRL). Cells were treated with the various reactive oxygen species (controls mock treated with serum-free media) at 70-80% confluence, between passages 5-7.
(§3) Xanthine oxidase/lumazine and spermine NONOate were used as low dose O2^− and nitric oxide donors, respectively. […]
(§4) The QPCR assay measures the average degree of DNA damage per strand for the two template strands in the genomic segment of interest. […] Damage is assessed in the mitochondrial genome by amplifying a 16.2 kb product from the mitochondrial DNA template, and the nuclear genome by a 17.7 kb product from the β-globin gene cluster. […] Because differences in QPCR amplifications may at times be related to template copy number differences or simply due to the DNA quality unrelated to in vivo or in vitro mediated damage, a quantitative amplification of a small region is performed as a quality control (32). […]

mitochondrial DNA [3] = experiment: QPCR DNA damage assay, mtDNA, HASMC; format: cell-based, human; conditions: 0.2 mM, time course 0-60 minutes
Method: as §2, §3, §4

mitochondrial DNA [4] = experiment: QPCR DNA damage assay, mtDNA, HUVEC; format: cell-based, human
Method: as §2
Xanthine oxidase/lumazine and spermine NONOate were used as low dose O2^− and nitric oxide donors, respectively. SIN-1 (3-morpholinosydnonimine, hydrochloride, Molecular Probes) was used to generate higher, equimolar levels of nitric oxide and O2^−. Monolayer cultures in 60 mm plates (70%-80% confluent) were exposed to specific reactive oxygen species concentrations for dose response, and time-course experiments in serum-free, phenol red free minimum essential media (MEM) at 37° C. Control monolayers were mock-treated with serum-free and phenol red-free MEM alone. After treatment, cells were washed once with PBS and harvested immediately.
as §4

[5] = system: mitochondrial protein synthesis; experiment: Mitochondrial protein synthesis (35S-methionine incorporation), HUVEC; format: cell-based, human
Method: as §1

[6] = system: 16S rRNA, ND2 and Cyt b transcripts; experiment: Northern transcript analysis, HUVEC; format: cell-based, human; conditions: 0.5 mM, 60 min
Method: (§5) Human umbilical endothelial vein cells (HUVEC) and human aortic smooth muscle cells (HASMC) were maintained a t 37° C. and 5% CO2/95% air in Dulbecco's Modified Eagles Media (HASMC; Cell Gro) or M199 (HUVEC:Cell Gro) supplemented with 10% (HASMC) or 20% (HUVEC) heat inactivated fetal calf serum (Gibco/BRL), HEPES buffer (10 mM), glutamine, penicillin, and streptomycin. Flasks were routinely split every 3-4 days and disassociated for experiments using trypsin-EDTA (Gibco/BRL). Cells were treated with the various reactive oxygen species (controls mock treated with serum-free media) at 70-80% confluence, between passages 5-7. […] SIN-1 (3-morpholinosydnonimine, hydrochloride, Molecular Probes) was used to generate higher, equimolar levels of nitric oxide and O2^-. Monolayer cultures in 60 mm plates (70%-80% confluent) were exposed to specific reactive oxygen species concentrations for dose response, and time-course experiments in serum-free, phenol red free minimum essential media (MEM) at 37° C. Control monolayers were mock-treated with serum-free and phenol red-free MEM alone. […] Autoradiographs were scanned densitometrically (Molecular Dynamics Densitometer SI) and quantitated using IMAGEQUANT (Molecular Dynamics). In regard to the quantitation of mitochondrial transcript levels, any technique used to quantify mtRNA transcript levels would be applicable. […]

[7] = system: mitochondrial DNA encoded OXPHOS gene transcripts; β-actin; experiment: Northern transcript analysis, HUVEC and HASMC pooled statements; format: cell-based, human; conditions: peroxynitrite treatments
Method: as §5

recombinant human MnSOD = target: T1, recombinant human MnSOD (Homo sapiens, UniProt P04179); conditions: cited from earlier work
T1 sequence (P04179 25-222): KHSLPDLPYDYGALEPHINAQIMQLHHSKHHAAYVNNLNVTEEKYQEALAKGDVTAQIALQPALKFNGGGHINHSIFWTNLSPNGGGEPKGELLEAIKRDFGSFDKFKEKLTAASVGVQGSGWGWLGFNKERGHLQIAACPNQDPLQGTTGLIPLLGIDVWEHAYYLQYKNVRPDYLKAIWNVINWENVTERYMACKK

HASMC = experiment: Total ATP determination, HASMC; format: cell-based, human; conditions: 1 hour
Method: (§6) Reduction of MTT at complex II was used to assess mitochondrial respiration (38-42). Cells were seeded in 96 well plates at a density of 8,000 cells/well and incubated at 37° C. […] Absorbance values were converted to MTT reduction using a standard curve generated with known numbers of viable cells. MTT reduction for treated samples was then normalized to non-treated control samples and is reported as a fraction of control. Total ATP levels were determined using an ATP determination kit (Molecular Probes, A-6608) and a MicroLumat Plus LB (EG&G Berthold) micro-injector luminometer. Briefly, this assay is based upon luciferin-luciferase bioluminescence (˜560 nm) in the presence of ATP. This assay is extremely sensitive; most luminometers can detect as little as 0.1 picomole of pre-existing ATP, or ATP as it is being formed in kinetic systems. Statistical analysis was performed using the independent Student's t test.

[8] = system: 16S rRNA, ND2 and Cyt b transcripts; experiment: Northern transcript analysis, HASMC; format: cell-based, human; conditions: 0.5 mM, 60 min
Method: as §5

[9] = system: complex II, succinate dehydrogenase; experiment: MTT reduction (mitochondrial respiration), HASMC; format: cell-based, human; conditions: 1 hour
Method: as §6

[10] = system: complex II, succinate dehydrogenase; experiment: MTT reduction (mitochondrial respiration), HUVEC; format: cell-based, human; conditions: 1 hour
Method: as §6

[11] = system: mitochondrial protein synthesis; experiment: Mitochondrial protein synthesis, HUVEC and HASMC pooled statements; format: cell-based; conditions: Homo sapiens; 0.1 mM, cell line not stated
Method: Human umbilical endothelial vein cells (HUVEC) and human aortic smooth muscle cells (HASMC) were maintained a t 37° C. and 5% CO2/95% air in Dulbecco's Modified Eagles Media (HASMC; Cell Gro) or M199 (HUVEC:Cell Gro) supplemented with 10% (HASMC) or 20% (HUVEC) heat inactivated fetal calf serum (Gibco/BRL), HEPES buffer (10 mM), glutamine, penicillin, and streptomycin. Flasks were routinely split every 3-4 days and disassociated for experiments using trypsin-EDTA (Gibco/BRL). Cells were treated with the various reactive oxygen species (controls mock treated with serum-free media) at 70-80% confluence, between passages 5-7. […] SIN-1 (3-morpholinosydnonimine, hydrochloride, Molecular Probes) was used to generate higher, equimolar levels of nitric oxide and O2^−. Monolayer cultures in 60 mm plates (70%-80% confluent) were exposed to specific reactive oxygen species concentrations for dose response, and time-course experiments in serum-free, phenol red free minimum essential media (MEM) at 37° C. […] The percent labeling of the translation products was determined by densitometry (Molecular Dynamics Densitometer SI) of all bands for untreated and treated samples. […] In regard to the quantitation of mitochondrial protein levels, any technique used to quantify mitochondrial protein synthesis levels would be applicable. […]

HUVEC = experiment: Total ATP determination, HUVEC; format: cell-based, human; conditions: 1 hour
Method: as §6

[12] = Homo sapiens, 0.5 mM, read-out: protein labeling, % of control

OO [H2O2, hydrogen peroxide]
35S-Methionine Incorporation Compared to Control ([1]; 0.2 mM): 67%
treatment time required before significant nDNA (β-globin) damage [2]: 60 min
time at which significant mitochondrial DNA damage occurred (mitochondrial DNA [3]): ≤ 15 min
time at which significant mitochondrial DNA damage occurred (mitochondrial DNA [4]; HUVEC, 0.2 mM, time course 0-60 minutes): ≤ 10 min
35S-Methionine Incorporation Compared to Control ([5]; 0.2 mM): 77%

O=NOO [peroxynitrite]
35S-Methionine Incorporation Compared to Control [1]: 30%
35S-Methionine Incorporation Compared to Control ([1]; 0.1 mM): 88%
decrease in 35S-methionine incorporation ([1]; 0.1 mM): 12%
activity at 500 µM [1, 12]: 30%
decrease of 16S rRNA levels [6]: 26%
transcript levels of the nuclear β-actin gene [7]: unaffected
inhibition of MnSOD enzymatic activity (recombinant human MnSOD): complete inhibition
total ATP (in words) (HASMC; 0.1 mM): did not result in a significant reduction
total ATP (in words) (HASMC; 0.5 mM, P=0.04): significant decreases
decrease in ND2 and Cyt b transcript levels [8]: 55%
reduction of 16S rRNA levels [8]: 14%
complex II reduction of MTT (mitochondrial respiration), in words ([9]; 0.1 mM): did not result in a significant decrease
complex II reduction of MTT (mitochondrial respiration), in words ([9]; 0.5 mM, P=0.008): significant decline
complex II reduction of MTT (mitochondrial respiration), in words ([10]; 0.1 mM): did not result in a significant decrease
complex II reduction of MTT (mitochondrial respiration), in words ([10]; 0.5 mM, P=0.02): significant decline
inhibition at 100 µM [11]: 10%
35S-Methionine Incorporation Compared to Control [5]: 45%
loss of mitochondrial protein synthesis compared to untreated cells ([5]; 0.5 mM): 55%
activity at 500 µM [5, 12]: 45%
total ATP (in words) (HUVEC; 0.1 mM): did not result in a significant reduction
total ATP (in words) (HUVEC; 0.5 mM, P=0.02): significant decreases

NCCCNCCCCN(CCCN)/[N+]([O-])=N/O [spermine NONOate]
DNA damage (in words) (mitochondrial DNA [4]; sustained nitric oxide generation 0.5 mM/ml/min, cell line not named in the clause (HUVEC context)): did no t cause DNA damage

catalase
effect of pretreatment on O2^- induced mitochondrial DNA damage (mitochondrial DNA [4]; HUVEC, O2^- 2 mM/ml/minute): prevented
